Values belong to the compound of their own block, whether it stands above or below them.
Legend:
[1] = target: histamine H1-receptor (Homo sapiens, UniProt P35367); conditions: primary metabolites of terfenadine; cited from earlier work
[2] = test system: patients with impaired hepatic function; conditions: recommended dose of terfenadine, or antihistaminic amount of acid metabolite
[3] = plasma concentrations of unchanged terfenadine and acid metabolite formation in subjects; format: in vivo
[4] = to two primary metabolites; cited from earlier work
[5] = cases of hepatic impairment, preliminary information

Chain of histamine H1-receptor (P35367 whole entry, species assumed): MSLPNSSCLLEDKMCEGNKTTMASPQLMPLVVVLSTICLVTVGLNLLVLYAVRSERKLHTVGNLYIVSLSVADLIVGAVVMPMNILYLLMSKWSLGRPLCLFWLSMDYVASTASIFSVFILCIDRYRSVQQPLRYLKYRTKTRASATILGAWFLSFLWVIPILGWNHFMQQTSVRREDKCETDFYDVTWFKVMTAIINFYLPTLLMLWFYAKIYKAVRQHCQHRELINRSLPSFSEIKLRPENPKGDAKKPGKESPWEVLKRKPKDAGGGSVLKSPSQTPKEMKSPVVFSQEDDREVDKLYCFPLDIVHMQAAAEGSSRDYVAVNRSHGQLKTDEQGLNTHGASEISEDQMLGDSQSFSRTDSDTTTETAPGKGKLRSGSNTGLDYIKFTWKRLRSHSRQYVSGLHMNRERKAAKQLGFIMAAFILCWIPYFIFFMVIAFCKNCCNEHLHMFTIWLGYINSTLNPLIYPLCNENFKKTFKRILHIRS

Compound: OC(c1ccccc1)(c1ccccc1)C1CCNCC1 [dealkylated metabolite]
activity of metabolite (antihistaminic) [1]: inactive

Compound: CC(C)(C(=O)O)c1ccc(C(O)CCCN2CCC(C(O)(c3ccccc3)c3ccccc3)CC2)cc1 (stereo not drawn) [terfenadine acid metabolite, 4-[l-hydroxy-4-[4-(hydroxydiphenylmethyl)-1-piperidinyl]butyl]-α,α-dimethyl-benzeneacetic acid]
cardiac events of QT prolongation and/or ventricular tachycardia [2]: will not experience cardiac events of QT prolongation and/or ventricular tachycardia

rate of acid metabolite formation [3, 5]: decreased | unchanged terfenadine plasma concentrations ([3]; subjects with normal hepatic function): have not been detected
Compound: CC(C)(C)c1ccc(C(O)CCCN2CCC(C(O)(c3ccccc3)c3ccccc3)CC2)cc1 (stereo not drawn) [Terfenadine, α-[4-(1,1-dimethylethyl)phenyl]-4-(hydroxydiphenylmethyl)-1-piperidinebutanol]
unchanged terfenadine plasma concentrations [3, 5]: significant concentrations of unchanged terfenadine can be detected | first pass metabolism [4]: 99%

From patent US6399632B1, “Method of providing an antihistaminic effect in a hepatically impaired patient” (Merrell Pharmaceuticals Inc., priority 1992, dated 2002)
